From US8334239B2, “High affinity VEGF-receptor antagonists” (The Board of Regents of the University of Texas System, priority 2007, dated 2012)
Positions of bridges follow the written chain, without caps; N, C: chain ends. Non-standard residues stand in square brackets, D forms with d. Residues, ends and D or L forms follow the SMILES beside them. Chains are numbered I, II in the order given. *: point of attachment. Fluorescein(5-Mal) = O=C1OC2(c3ccc(O)cc3Oc3cc(O)ccc32)c2ccc(N3C(=O)CC(*)C3=O)cc21; Gly(N(CH2)2(3-indolyl)) = O=C(O)CNCCc1c[nH]c2ccccc12; Gly(N-piperonyl) = O=C(O)CNCc1ccc2c(c1)OCO2; Nrpe = C[C@@H](NCC(=O)O)c1ccccc1; NFurfurylGly = O=C(O)CNCc1ccco1; Nleu = CC(C)CNCC(=O)O; Nlys = NCCCCNCC(=O)O; Ahx = NCCCCCC(=O)O; βAla = NCCC(=O)O

Experiments:
VEGFR2 [1] = target: T1, VEGFR2 (Homo sapiens, UniProt P35968); test: ELISA-like binding assay, fluoresceinated peptoids on immobilized VEGFR2 extracellular domain; parameters: VEGFR2 extracellular domain (amino acids 1-764 fused to 6× histidine-tagged Fc of human IgG, via the peptide IEGRMD; R&D Systems); linker peptide IEGRMD (internal); Fc of human IgG (C); 6xHis (C); purchased R&D Systems; conditions: binding improved compared to the monomer of the series
Description: ELISA based binding assay. White, clear bottom 96-well plates (Corning Inc.) were coated with of 1 μg/ml recombinant human VEGFR2 protein (R&D Systems) using the sensitizing buffer (0.621 g NaHCO3 & 0.275 g Na2CO3 dissolved on 100 ml of ddH2O, pH=9.5) overnight at 4° C. Washed with 3×200 μl of wash buffer 1×PBS with 0.05% Tween-20 and blocked with Startingblock blocking buffer (Pierce). Added 50 μl of serial dilutions of FITC labeled peptoids dissolved in Startingblock blocking buffer to each well & allowed to react for 1 h at room temperature. Washed with 5×200 μl of wash buffer 1×PBS with 0.05% Tween-20 and remaining fluorescence was measured at 520 nm using the plate reader.
The isolated peptoids are VEGFR2 ligands. Two of the ‘hits’ from this screen, GU40C and GU40E (see FIG. 2) were resynthesized, both as free compounds and with C-terminal Cys (for C-terminal fluorescein tagging via maleimide chemistry), cleaved from the beads and purified to apparent homogeneity by reverse phase HPLC. […] The association of these peptoids with VEGFR2 was evaluated using an ELISA-like assay. A commercially available fusion protein containing the VEGFR2 extracellular domain (amino acids 1-764 fused to 6× histidine-tagged Fc of human IgG, via the peptide IEGRMD; R&D Systems) was plated into 96-well plates and then mixed with various concentrations of […] Fluorescein (FITC)-labeled peptoid. After washing away unbound peptoid, the remaining fluorescence emission signal was measured at 520 nm. In this assay purified VEGFR2 protein was used instead of the whole PAE/KDR cells that over express VEGFR2, in order to confirm these compounds were binding only to the receptor.
Target sequence in this assay (P35968 20-764): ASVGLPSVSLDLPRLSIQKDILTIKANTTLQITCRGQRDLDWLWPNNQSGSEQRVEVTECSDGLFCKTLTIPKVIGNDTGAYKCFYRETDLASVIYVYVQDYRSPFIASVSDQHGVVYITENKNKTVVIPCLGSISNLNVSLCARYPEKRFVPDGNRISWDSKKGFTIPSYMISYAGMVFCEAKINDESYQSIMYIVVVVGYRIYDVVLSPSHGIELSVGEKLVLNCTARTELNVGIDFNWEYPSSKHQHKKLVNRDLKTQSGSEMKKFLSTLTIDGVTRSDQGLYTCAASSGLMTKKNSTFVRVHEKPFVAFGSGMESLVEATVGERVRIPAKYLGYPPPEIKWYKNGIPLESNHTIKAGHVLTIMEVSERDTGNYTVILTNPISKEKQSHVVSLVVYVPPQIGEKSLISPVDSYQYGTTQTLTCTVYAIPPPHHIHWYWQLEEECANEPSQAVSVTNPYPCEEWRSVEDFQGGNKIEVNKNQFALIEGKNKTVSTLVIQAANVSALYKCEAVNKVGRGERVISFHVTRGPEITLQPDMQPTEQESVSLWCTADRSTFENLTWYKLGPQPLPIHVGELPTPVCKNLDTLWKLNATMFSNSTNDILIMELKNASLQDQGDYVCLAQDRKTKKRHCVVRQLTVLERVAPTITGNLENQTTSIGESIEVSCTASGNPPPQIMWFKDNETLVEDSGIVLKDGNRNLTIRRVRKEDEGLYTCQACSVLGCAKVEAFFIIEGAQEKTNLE

VEGFR2 [2] = target: T1, VEGFR2; test: VEGF-induced VEGFR2 autophosphorylation in PAE/KDR cells, Western blot; assay type: cell-based; parameters: allow the library to be screened against the full-length receptor in as natural an environment as possible; host or cells: PAE/KDR (porcine aortic endothelial cells expressing human KDR)
Description: Western blots. Experiments were conducted using PAE/KDR cells that were grown on 6-well plates. […] The blots were probed with Phospho-VEGF receptor 2 (Tyr1175) (19A10) rabbit monoclonal or Total VEGFR2 primary antibodies (Cell signaling) and HRP-conjugated secondary antibody (BioRad).
Functional characterization of the VEGFR2-binding peptoids. GU40C and GU40E were then tested for their ability to modulate VEGFR function. Of course, since the screen simply demanded binding of the peptoid to the receptor, it was not a given that this would be the case. […] Western blot analysis using phospho-VEGFR2-specific antibodies was then employed to monitor receptor activation.
To do so, the inventors examined the effect of the peptoid on VEGF-induced VEGFR2 autophosphorylation by Western blotting, as described earlier.
Target sequence in this assay (P35968 20-1356): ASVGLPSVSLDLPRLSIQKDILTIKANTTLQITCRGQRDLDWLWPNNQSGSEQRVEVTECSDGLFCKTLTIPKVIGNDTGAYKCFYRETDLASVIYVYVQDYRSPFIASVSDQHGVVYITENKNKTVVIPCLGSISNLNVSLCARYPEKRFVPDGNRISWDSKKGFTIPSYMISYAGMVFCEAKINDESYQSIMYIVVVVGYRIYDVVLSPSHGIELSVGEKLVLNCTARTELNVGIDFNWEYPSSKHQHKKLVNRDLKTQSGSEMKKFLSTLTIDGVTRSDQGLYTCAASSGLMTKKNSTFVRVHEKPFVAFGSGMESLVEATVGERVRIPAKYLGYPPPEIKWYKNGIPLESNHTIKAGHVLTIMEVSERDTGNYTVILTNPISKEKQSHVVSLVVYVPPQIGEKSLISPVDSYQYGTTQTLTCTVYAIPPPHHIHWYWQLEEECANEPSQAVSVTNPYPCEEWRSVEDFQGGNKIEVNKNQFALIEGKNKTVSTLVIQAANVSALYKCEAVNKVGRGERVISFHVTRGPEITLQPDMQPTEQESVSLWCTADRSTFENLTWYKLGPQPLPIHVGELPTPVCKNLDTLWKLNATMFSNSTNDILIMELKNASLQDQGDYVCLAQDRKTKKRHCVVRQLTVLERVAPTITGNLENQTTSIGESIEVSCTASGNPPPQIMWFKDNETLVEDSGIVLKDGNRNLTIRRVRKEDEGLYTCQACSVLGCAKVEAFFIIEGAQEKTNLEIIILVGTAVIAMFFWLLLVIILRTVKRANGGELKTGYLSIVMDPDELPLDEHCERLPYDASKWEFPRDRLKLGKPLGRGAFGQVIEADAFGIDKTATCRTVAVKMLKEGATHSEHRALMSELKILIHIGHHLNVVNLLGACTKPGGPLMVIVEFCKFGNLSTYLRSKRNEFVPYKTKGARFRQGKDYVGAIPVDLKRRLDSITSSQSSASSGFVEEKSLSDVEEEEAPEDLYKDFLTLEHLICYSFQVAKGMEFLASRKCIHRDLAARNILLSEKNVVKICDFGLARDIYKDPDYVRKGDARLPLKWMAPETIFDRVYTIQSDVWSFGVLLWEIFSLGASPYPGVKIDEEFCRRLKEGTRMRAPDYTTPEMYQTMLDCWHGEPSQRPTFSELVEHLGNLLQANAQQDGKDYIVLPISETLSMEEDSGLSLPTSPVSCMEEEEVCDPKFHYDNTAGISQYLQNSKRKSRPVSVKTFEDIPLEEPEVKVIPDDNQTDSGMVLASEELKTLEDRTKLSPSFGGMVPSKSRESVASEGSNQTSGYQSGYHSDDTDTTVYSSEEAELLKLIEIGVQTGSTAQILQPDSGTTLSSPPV

Compound	Fold improved (VEGFR2 [1]) [fold]	also measured
CC(C)CN(CC(=O)N(CCCCN)CC(=O)N(CC(=O)N(CC(=O)N(CCCCN)CC(=O)N(CC(=O)N(CCCCN)CC(=O)N(CCCCN)CC(=O)NCCCC[C@H](NC(=O)CCNC(=O)CN(CCCCN)C(=O)CN(CCCCN)C(=O)CN(CC(C)C)C(=O)CN(CCCCN)C(=O)CN(Cc1ccc2c(c1)OCO2)C(=O)CN(C(=O)CN(CCCCN)C(=O)CN(CC(C)C)C(=O)CNCCCCN)[C@H](C)c1ccccc1)C(=O)N[C@@H](CSC1CC(=O)N(c2ccc3c(c2)C(=O)OC32c3ccc(O)cc3Oc3cc(O)ccc32)C1=O)C(N)=O)CC(C)C)Cc1ccc2c(c1)OCO2)[C@H](C)c1ccccc1)C(=O)CNCCCCN (stereo partly drawn) [GU40C2] (I: H-[Nlys][Nleu][Nlys][Nrpe][Gly(N-piperonyl)][Nlys][Nleu][Nlys][Nlys][βAla]KC(Fluorescein(5-Mal))-NH2 / II: H-[Nlys][Nleu][Nlys][Nrpe][Gly(N-piperonyl)][Nlys][Nleu][Nlys][Nlys]; amide I:11-II:C; N-terminus assumed)	11	–
CC(C)CN(CC(=O)N(CCCCN)CC(=O)N(CCCCN)CC(=O)NCCCC[C@H](NC(=O)CCNC(=O)CN(CCCCN)C(=O)CN(CCCCN)C(=O)CN(CC(C)C)C(=O)CN(CCCCN)C(=O)CN(CC(C)C)C(=O)CN(CCCCN)C(=O)CN(Cc1ccco1)C(=O)CN(CCCCN)C(=O)CNCCc1c[nH]c2ccccc12)C(=O)N[C@@H](CSC1CC(=O)N(c2ccc3c(c2)C(=O)OC32c3ccc(O)cc3Oc3cc(O)ccc32)C1=O)C(N)=O)C(=O)CN(CCCCN)C(=O)CN(CC(C)C)C(=O)CN(CCCCN)C(=O)CN(Cc1ccco1)C(=O)CN(CCCCN)C(=O)CNCCc1c[nH]c2ccccc12 (stereo partly drawn) [GU40E2] (I: H-[Gly(N(CH2)2(3-indolyl))][Nlys][NFurfurylGly][Nlys][Nleu][Nlys][Nleu][Nlys][Nlys][βAla]KC(Fluorescein(5-Mal))-NH2 / II: H-[Gly(N(CH2)2(3-indolyl))][Nlys][NFurfurylGly][Nlys][Nleu][Nlys][Nleu][Nlys][Nlys]; amide I:11-II:C; N-terminus assumed)	2	–
CC(C)CN(CC(=O)N(CCCCN)CC(=O)N(CCCCN)CC(=O)NCCCCCC(=O)NCCC(=O)N[C@@H](CCCCNC(=O)CN(CCCCN)C(=O)CN(CCCCN)C(=O)CN(CC(C)C)C(=O)CN(CCCCN)C(=O)CN(CC(C)C)C(=O)CN(CCCCN)C(=O)CN(Cc1ccco1)C(=O)CN(CCCCN)C(=O)CNCCc1c[nH]c2ccccc12)C(=O)N[C@@H](CSC1CC(=O)N(c2ccc3c(c2)C(=O)OC32c3ccc(O)cc3Oc3cc(O)ccc32)C1=O)C(N)=O)C(=O)CN(CCCCN)C(=O)CN(CC(C)C)C(=O)CN(CCCCN)C(=O)CN(Cc1ccco1)C(=O)CN(CCCCN)C(=O)CNCCc1c[nH]c2ccccc12 (stereo partly drawn) [GU40E4] (I: H-[Gly(N(CH2)2(3-indolyl))][Nlys][NFurfurylGly][Nlys][Nleu][Nlys][Nleu][Nlys][Nlys][Ahx][βAla]KC(Fluorescein(5-Mal))-NH2 / II: H-[Gly(N(CH2)2(3-indolyl))][Nlys][NFurfurylGly][Nlys][Nleu][Nlys][Nleu][Nlys][Nlys]; amide I:12-II:C; N-terminus assumed)	9	–
Avastin: ultra-high affinity anti-VEGF antibody employed clinically [reference compound]	–	effect on VEGFR2 autophosphorylation (in words) (VEGFR2 [2]; 1 μM, 1.3 nM VEGF): completely blocked
Nlys-Npip-Nleu-Nlys-Npip-Nlys-Nleu-Nlys-Nlys [GU40B]	–	agonist activity on VEGFR2 phosphorylation (VEGFR2 [2]; PAE/KDR cells, Western blot): None of the peptoids exhibited agonist activity; effect on VEGF-induced VEGFR2 phosphorylation (in words) (VEGFR2 [2]; monomeric peptoids, 500 μM, 1.3 nM VEGF): no effect
